Source: patent publication EP4389746A2, “P2X3 RECEPTOR ANTAGONISTS” (Recordati Industria Chimica E Farmaceutica SPA, priority 2022, dated 2024)

Molecular target: T1, human P2X3 receptor (Homo sapiens, UniProt P56373)
T1 construct: expressed in transfected cells; host or cells: CHO-K1
T1 sequence (P56373 1-397): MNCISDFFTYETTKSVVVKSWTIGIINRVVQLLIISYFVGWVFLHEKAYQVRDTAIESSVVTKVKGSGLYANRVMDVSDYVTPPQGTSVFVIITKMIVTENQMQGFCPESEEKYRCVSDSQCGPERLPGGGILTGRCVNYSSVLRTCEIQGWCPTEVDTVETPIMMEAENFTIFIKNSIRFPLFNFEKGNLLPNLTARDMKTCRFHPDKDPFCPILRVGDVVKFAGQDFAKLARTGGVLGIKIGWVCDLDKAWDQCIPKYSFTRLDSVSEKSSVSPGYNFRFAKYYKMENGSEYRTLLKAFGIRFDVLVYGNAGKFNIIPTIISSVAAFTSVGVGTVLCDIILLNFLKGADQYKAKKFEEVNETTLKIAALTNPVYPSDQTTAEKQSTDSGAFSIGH
Experiment: Calcium luminescence measurement: human P2X3 receptor activity inhibition (CHO-K1 cells, photoprotein readout, FLEXSTATION)
Type: cell-based
Conditions: CHO-K1 cells co-expressing human P2X3 and Ca2+ sensitive photoprotein; agonist α,β-Met-ATP; read-out: h-P2X3 IC50

- IC50: 36.8 nM
Compound: CC(C)C1C(=O)N=C2c3ncc(N4CCOCC4)cc3N(Cc3ccc(Cl)cc3)C(=O)N21 (racemic) [Example 22, 6-[(4-Chlorophenyl)methyl]-8-(morpholin-4-yl)-3-(propan-2-yl)imidazo[1,2-c]pyrido[2,3-e]pyrimidine-2,5(3H,6H)-dione]
